Reference: patent publication US20220325301A1, “AUXOTROPHIC SELECTION METHODS” (AUXOLYTIC LTD, priority 2019, published 2022)

Experiments:
UMPS knockout cells [1] = test: Split auxotrophy: selection of dual transgene integration (CD19/mCherry flow cytometry); assay type: cell-based, human; conditions: day 16
Experimental: The UMPS locus is disrupted in the hESCs by electroporation of Cas9 RNP to insert an expression control sequence comprising a tissue-specific promoter into the genomic locus. The promoter will begin to instigate transcription due to interaction with endothelial tissue. For gene editing, hESCs are treated with 10 μm ROCK inhibitor (Y-27632) for 24 hours before electroporation. Cells at 70-80% confluence are harvested with ACCUTASE® solution (Life Technologies). 500,000 cells were used per reaction with a SpCas9 concentration of 150 μg/mL (Integrated DNA Technologies) and a Cas9:sgRNA molar ratio of 1:3 and electroporation performed in P3 Primary Cell solution (Lonza) in 16-well NUCLEOCUVETTE™ Strips in the 4D NUCLEOFECTOR system (Lonza). Immediately after electroporation, cells are transferred into one well of a MATRIGEL® protein mixture (Corning, Inc.)-coated 24 well plate containing 500 μl of mTeSR™ media (STEMCELL Technologies) with 10 μM Y-27632. Media was changed 24 hours after editing and Y-27632 is removed 48 hours after.
Independent functional domains of UMPS, i.e. OPRT and ODC, are reintroduced into UMPS knockout cells according to Example 2 using two separate vectors. A first homologous recombination donor vector carrying OPRT and mCherry (SEQ ID NO: 43) comprises sequence encoding OPRT (SEQ ID NO: 4, encoding amino acid sequence of SEQ ID NO: 5), 2A linker (SEQ ID NO: 19, SEQ ID NO: 21, or SEQ ID NO: 23, encoding amino acid sequences of SEQ ID NO: 20, SEQ ID NO: 22, and SEQ ID NO: 24, respectively), and sequence encoding mCherry fluorescent protein (SEQ ID NO: 34 or SEQ ID NO: 35, each encoding amino acid sequence of SEQ ID NO: 36). Homologous recombination donor vector carrying ODC and CD19 (SEQ ID NO: 44) comprises sequence encoding tCD19 (SEQ ID NO: 37, encoding amino acid sequence of SEQ ID NO: 38), 2A linker, and sequence encoding ODC (SEQ ID NO: 6, encoding amino acid sequence of SEQ ID NO: 7). Expression of OPRT and ODC constructs can be driven by a eukaryotic promoter such as EF1a (SEQ ID NO: 31 or SEQ ID NO: 32). Homologous recombination vectors are co-targeted for integration into safe harbor locus CCR5 (using, for example, CCR5 left and right homology arms selected from SEQ ID NOs: 11-15 as described herein). Homologous recombination vectors can further include termination signals such as a bGH-PolyA termination signal (SEQ ID NO: 39 or SEQ ID NO: 40). Cells are cultured with and without uridine, and the percent of cells expressing both CD19 and mCherry (CD19+/mCherry+) is measured by flow cytometry over time.

[2] = tested on: UMPS knockout H9 human embryonic stem cells (hESCs); test: Lineage-specific auxotrophy during beta cell differentiation (GFP ratio in mCherry-off vs mCherry-on cells, fluorescence microscopy); assay type: cell-based; conditions: uridine withdrawal at day 12
Text: As a proof of concept, UMPS knockout cells were engineered to express insulin and were differentiated to pancreatic progenitor cells using an appropriate method as described, for example, in Ma et al. (2018), Pagliuca et al. (2014), and/or Rezania et al. (2014) discussed and incorporated herein. The UMPS gene was knocked out in H9 human embryonic stem cells (hESCs) according to the methods described herein. A GFP-Luciferase expression construct under regulation of a constitutive promoter was integrated by homologous recombination into the HBB locus (see, for example, Dever, Daniel P., et al. “CRISPR/Cas9 β-globin gene targeting in human haematopoietic stem cells.” Nature 539.7629 (2016): 384-389, the contents of which are incorporated herein by reference in their entirety). […] Cells were monitored and assessed for mCherry and UMPS expression on subsequent days up to day 25. The differentiation protocol was followed with cells either in the continuous presence of uridine through day 18 or through the end of the culture period, or through only day 12 (during Stage 4). mCherry and UMPS expression were assessed. An mCherry on vs. off threshold was defined to identify UMPS expressing cells (given UMPS expression is coupled to mCherry) using thresholding based on fluorescence images. […]
Therefore, expression of GFP in mCherry negative cells, when uridine is present, was expected to be higher than the expression of GFP in mCherry negative cells when uridine is absent. […] The results are shown in Table 7, where the “Auxotrophy Metric” was calculated as the mean GFP ratio in uridine-withdrawn conditions divided by the mean GFP ratio in uridine-continued conditions: [(mean GFP(mCherry-Off)/mean GFP(mCherry-On)) uridine-withdrawn-conditions]/[(mean GFP(mCherry-Off)/mean GFP(mCherry-On)) uridine-continued conditions].

UMPS knockout cells [3] = test: Selection of cells re-expressing UMPS in a UMPS-/- background (% mCherry+ by flow cytometry); assay type: cell-based; conditions: after 14 days in culture
Experimental: A construct (SEQ ID NO: 42) expressing mCherry and UMPS separated by a 2A linker sequence under control of a constitutive promoter (EF1a) delivered via DNA vector was inserted by electroporation into the CCR5 locus targeted using homologous recombination arms. Cells were grown in the presence of uridine to alleviate any selection pressure, then uridine was removed to select for cells successfully re-expressing UMPS. Cells were sorted by expression of mCherry using flow cytometry. After 14 days in culture, % mCherry+ cells was approximately 20% in the presence of uridine; % mCherry+ cells was approximately 90% in the absence of uridine.

Split UMPS: two homologous recombination donor vectors, OPRT and mCherry (SEQ ID NO: 43) and ODC and CD19 (SEQ ID NO: 44), co-targeted to CCR5
% CD19+ only (UMPS knockout cells [1]; +Uridine): 1.2%
% CD19+/mCherry+ (UMPS knockout cells [1]; +Uridine): 0.3%
% CD19-/mCherry- (UMPS knockout cells [1]; +Uridine): 92.9%
% mCherry+ only (UMPS knockout cells [1]; +Uridine): 5.6%
% CD19+ only (UMPS knockout cells [1]; No Uridine): 0.1%
% CD19+/mCherry+ (UMPS knockout cells [1]; No Uridine): 94.7%
% CD19-/mCherry- (UMPS knockout cells [1]; No Uridine): 0.1%
% mCherry+ only (UMPS knockout cells [1]; No Uridine): 5.1%

INS-mCherry-UMPS: tricistronic construct expressing insulin, mCherry and UMPS under endogenous insulin regulatory control sequences, integrated into the insulin locus
Auxotrophy Metric (mean GFP ratio mCherry-Off/mCherry-On, uridine-withdrawn divided by uridine-continued) ([2]; culture day 12): 0.9904
Auxotrophy Metric (mean GFP ratio mCherry-Off/mCherry-On, uridine-withdrawn divided by uridine-continued) ([2]; culture day 18): 0.9827
Auxotrophy Metric (mean GFP ratio mCherry-Off/mCherry-On, uridine-withdrawn divided by uridine-continued) ([2]; culture day 25): 0.7261

SEQ ID NO: 42: construct expressing mCherry and UMPS separated by a 2A linker under constitutive EF1a promoter, inserted into the CCR5 locus of UMPS knockout cells
% mCherry+ cells (UMPS knockout cells [3]; in the absence of uridine): approximately 90%
% mCherry+ cells (UMPS knockout cells [3]; in the presence of uridine): approximately 20%
